The target in this assay is T1, GnRH receptor (Homo sapiens, UniProt P30968).
T1 construct: expressed in transfected cells
T1 sequence (P30968 1-328): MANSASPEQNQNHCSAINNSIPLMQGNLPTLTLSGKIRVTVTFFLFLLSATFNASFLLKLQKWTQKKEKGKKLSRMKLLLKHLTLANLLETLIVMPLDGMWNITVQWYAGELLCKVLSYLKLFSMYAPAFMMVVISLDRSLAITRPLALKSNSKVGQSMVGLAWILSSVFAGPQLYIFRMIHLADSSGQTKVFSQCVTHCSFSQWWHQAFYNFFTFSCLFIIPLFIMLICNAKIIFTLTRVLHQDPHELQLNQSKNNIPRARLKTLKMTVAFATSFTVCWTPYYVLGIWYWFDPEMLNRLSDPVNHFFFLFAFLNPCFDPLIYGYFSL
The experiment in a line: GnRH Receptor Membrane Binding Assay. Particulars: calculated from IC50 for displacement of radiolabeled ligand ([125I]-labeled GnRH peptide) from the GnRH receptor, Cheng-Prusoff. The procedure:
Activity of GnRH receptor antagonists are typically calculated from the IC50 as the concentration of a compound necessary to displace 50% of the radiolabeled ligand from the GnRH receptor, and is reported as a “Ki” value calculated by the following equation: [formula]
where L=radioligand and KD=affinity of radioligand for receptor (Cheng and Prusoff, Biochem. Pharmacol. 22:3099, 1973). GnRH receptor antagonists of this invention have a Ki of 100 μM or less. In a preferred embodiment of this invention, the GnRH receptor antagonists have a Ki of less than 10 μM, and more preferably less than 1 μM. More preferred compounds include: 1-1, 1-2-5, 12, 13-15, 19, 21, 27, 31, 32, 34, 37, 55, 58, 64, 73, 2B, 2D, 3A, 3B, 3D, 4A, 4B, 4C, 4D, 4G, 4H, 5A and 5B (see Examples below).
Radio-iodination of GnRH Peptide
The GnRH analog is labeled by the chloramine-T method. To 10 μg of peptide in 20 μl of 0.5M sodium phosphate buffer, pH 7.6, is added 1 mCi of Na125I, followed by 22.5 μg chloramine-T and the mixture vortexed for 20 sec. The reaction is stopped by the addition of 60 μg sodium metabisulfite and the free iodine is removed by passing the iodinated mixture through a C-8 Sep-Pak cartridge (Millipore Corp., Milford, Mass.). The peptide is eluted with a small volume of 80% acetonitrile/water. The recovered labeled peptide is further purified by reverse phase HPLC on a Vydac C-18 analytical column (The Separations Group, Hesperia, Calif.) on a Beckman 334 gradient HPLC system using a gradient of acetonitrile in 0.1% TFA. The purified radioactive peptide is stored in 0.1% BSA/20% acetonitrile/0.1% TFA at […] and can be used for up to 4 weeks.
GnRH Receptor Membrane Binding Assay
Cells stably, or transiently, transfected with GnRH receptor expression vectors are harvested, resuspended in 5% sucrose and homogenized using a polytron homogenizer (2×15 sec). Nuclei are removed by centrifugation (3000×g for 5 min.), and the supernatant centrifuged (20,000×g for 30 min, 4° C.) to collect the membrane fraction. The final membrane preparation is resuspended in binding buffer (10 mM Hepes (pH 7.5), 150 mM NaCl, and 0.1% BSA) and stored at −70° C. Binding reactions are performed in a Millipore MultiScreen 96-well filtration plate assembly with polyethylenimine coated GF/C membranes. The reaction is initiated by adding membranes (40 ug protein in 130 ul binding buffer) to 50 ul of [^125I]-labeled GnRH peptide (˜100,000 cpm), and 20 ul of competitor at varying concentrations. The reaction is terminated after 90 minutes by application of vacuum and washing (2×) with phosphate buffered saline. Bound radioactivity is measured using 96-well scintillation counting (Packard Topcount) or by removing the filters from the plate and direct gamma counting. Ki values are calculated from competition binding data using non-linear least squares regression using the Prism software package (GraphPad Software).
What is called Ki is a measure of affinity in units of concentration, obtained from inhibition or displacement. Take `COc1cccc(-c2c(C)n(Cc3ccccc3F)c3nc(C(C)(C)C)c(CN(C)CCc4ccccn4)n3c2=O)c1` [Example 1-1, 2-(tert-butyl)-3-[N-methyl-N-(2-pyridylethyl)aminomethyl]-5-(3-methoxyphenyl)-6-methyl-7-(2-fluorobenzyl)immidazolo[1,2-a]pyrimid-4-one]: the Ki is < 1000 nM.

Consider `COc1cccc(-c2c(C)n(Cc3ccccc3F)c3nc(C(C)(C)C)c(CN(C)Cc4ccccn4)n3c2=O)c1` [Example 1-12], for which the Ki is < 1000 nM. The same measure for `Cc1c(-c2ccccc2)c(=O)n2c(CN(C)Cc3ccco3)c(C(C)(C)C)nc2n1Cc1ccccc1F` [Example 1-19]: < 1000 nM; for `COc1cccc(-c2c(C)n(Cc3ccccc3F)c3nc(C4(C)CCOC4=O)c(CN(C)Cc4ccccc4)n3c2=O)c1` (stereo not shown) [Example 1-21]: < 1000 nM; for `COc1cccc(-c2c(C)n(Cc3ccccc3F)c3nc(C4(C)CCOC4=O)c(CN(C)Cc4ccco4)n3c2=O)c1` (stereo not shown) [Example 1-27]: < 1000 nM. On to `CC(=O)c1cccc(-c2c(C)n(Cc3ccccc3F)c3nc(C(C)(C)C)c(CN(C)Cc4ccccc4)n3c2=O)c1` [Example 1-31], for which the Ki was < 1000 nM. For `CC(=O)c1cccc(-c2c(C)n(Cc3ccccc3F)c3nc(C(C)(C)C)c(CN(C)CCc4ccccn4)n3c2=O)c1` [Example 1-32], the Ki was < 1000 nM. As for `COc1cccc(-c2c(C)n(Cc3ccccc3F)c3nc(C(C)(C)C)c(CN(C)[C@H](C)c4ccccc4)n3c2=O)c1` [Example 1-37], the Ki was < 1000 nM. For the compound `Cc1c(-c2ccccc2F)c(=O)n2c(CN(C)CCc3ccccn3)c(C(C)(C)C)nc2n1Cc1ccccc1F` [Example 1-55], the Ki was < 1000 nM.

With `CCN(CC)CCN(C)Cc1c(C(C)(C)C)nc2n(Cc3ccccc3F)c(C)c(-c3ccc4c(c3)OCO4)c(=O)n12` [Example 1-73], the Ki is < 1000 nM.

As for `COC(=O)C(C)(C)c1nc2n(Cc3ccccc3F)c(C)c(-c3cccc(OC)c3)c(=O)n2c1CN(C)Cc1ccccc1` [Example 4A, 2-(1-methoxycarbonyl-1-methylethyl)-3-(N-methyl-N-benzylaminomethyl)-5-(3-methoxyphenyl)-6-methyl-7-(2-flurorbenzyl)imidazolo[1,2-a]pyrimid-4-one], the Ki was < 1000 nM. The same measure for `COC(=O)C(C)(C)c1nc2n(Cc3ccccc3F)c(C)c(-c3cccc(OC)c3)c(=O)n2c1CN(C)Cc1ccco1` [Example 4D]: < 1000 nM.

Consider `COC(=O)C(C)(C)c1nc2n(Cc3ccccc3F)c(C)c(-c3cccc(OC)c3)c(=O)n2c1CNCc1ccccn1` [Example 4G], for which the Ki was < 1000 nM. Take `COC(=O)C(C)(C)c1nc2n(Cc3ccccc3F)c(C)c(-c3cccc(OC)c3F)c(=O)n2c1CN(C)CCc1ccccn1` [Example 4H]: the Ki was < 1000 nM. As to `CCOC(=O)Cc1nc2n(Cc3ccccc3F)c(C)c(-c3cccc(OC)c3)c(=O)n2c1CN(C)CCc1ccccn1` [Example 5A, 2-Ethoxycarbonylmethyl-3-{N-methyl-N-[2-(2-pyridyl)ethyl]aminomethyl}-5-(3-methoxyphenyl)-6-methyl-7-(2-fluorobenzyl)imidazolo[1,2-a]pyrimid-4-one], the inhibition constant (Ki) is < 1000 nM. `CCOC(=O)Cc1nc2n(Cc3ccccc3F)c(C)c(-c3cccc(OC)c3)c(=O)n2c1CN(C)Cc1ccccc1` [Example 5B, 2-ethoxycarbonylmethyl-3-{N-methyl-N-benzyl)-5-(3-methoxyphenyl)-6-methyl-7-(2-fluorobenzyl)imidazolo[1,2-a]pyrimid-4-one]: the Ki is < 1000 nM.

Values taken from patent US6537998B1, “Gonadotropin-releasing hormone receptor antagonists and methods relating thereto” (Neurocrine Biosciences, Inc., priority 1999, dated 2003).
